Experimental data published in ChEMBL document CHEMBL1142108, “Carbamidocyclophanes A-E, chlorinated paracyclophanes with cytotoxic and antibiotic activity from the Vietnamese cyanobacterium Nostoc sp” (J Nat Prod, 2007).
pIC50: −log10 of the molar value. In brackets after ≈: the same amount, converted by molar mass.

Assays:
[1] = Cytotoxicity against human F1 cells after 48 hrs; assay type: cell-based; conditions: F1, 48 h
MCF7 = assay: Cytotoxicity against MCF7 cells after 48 hrs; assay type: cell-based; conditions: Homo sapiens, MCF7, 48 h
Staphylococcus aureus = assay: Antibacterial activity against Staphylococcus aureus ATCC 6538; assay type: functional

Work on `C[C@H]1CCCCC(CCCC(Cl)Cl)c2c(O)cc(cc2O)[C@H](OC(N)=O)[C@@H](C)CCCCC(CCCC(Cl)Cl)c2c(O)cc(cc2O)[C@@H]1OC(N)=O` (some centres undefined) [CARBAMIDOCYCLOPHANE A] yielded a pIC50 [1] of 5.48, a pIC50 (MCF7) of 6.07 and an MIC (Staphylococcus aureus) of 100 µM (≈ 80.9 µg/mL).

For `C[C@H]1CCCCC(CCCCCl)c2c(O)cc(cc2O)[C@H](OC(N)=O)[C@@H](C)CCCCC(CCCC(Cl)Cl)c2c(O)cc(cc2O)[C@@H]1OC(N)=O` (some centres undefined) [CARBAMIDOCYCLOPHANE B], the pIC50 [1] was 5.38, the pIC50 (MCF7) was 5.74 and the MIC (Staphylococcus aureus) was 40 µM (≈ 31 µg/mL).

Work on `CCCCC1CCCC[C@H](C)[C@@H](OC(N)=O)c2cc(O)c(c(O)c2)C(CCCC(Cl)Cl)CCCC[C@H](C)[C@@H](OC(N)=O)c2cc(O)c1c(O)c2` (some centres undefined) [CARBAMIDOCYCLOPHANE C] yielded a pIC50 [1] of 5.29, a pIC50 (MCF7) of 5.66 and an MIC (Staphylococcus aureus) of 60 µM (≈ 44.4 µg/mL).
